Results on 2 compounds are retold here after patent US20240401027A1, “METHOD FOR IMPROVED INTRON TAGGING AND AUTOMATED CLONE RECOGNITION” (PROXYGEN GMBH, priority 2021, published 2024).

The assay deals with pool of HAP1 cells expressing GFP-tagged proteins. In words: Live cell imaging of GFP-tagged HAP1 cell pool and arrayed clones: compound effects on levels and localization of tagged proteins. In kind it is cell-based, human. The procedure: Live cell imaging was performed on a PerkinElmer Opera Phenix microscope with excitation laser 488 nm, and emission filter 500-550 nm, 700 ms.
Identification of the expressed sgRNAs by in situ sequencing was performed by following and modifying published protocols, see, e.g., Feldman (2019) loc. cit; Ke (2013) Nat Methods 10, 857-60; and Larsson (2010) Nat Methods 7, 395-7.
Reverse transcription mix (1× RevertAid RT buffer, 250 µM dNTPs, 0.2 mg/mL BSA, 1 µM RT primer, 0.8 U/mL Ribolock RNase inhibitor, and 4.8 U/mL RevertAid H minus reverse transcriptase) was added to the sample and incubated for 16 hours at 37° C. Following reverse transcription, cells were washed 5 times with PBS-T and post-fixed with 3% paraformaldehyde and 0.1% glutaraldehyde for 30 minutes at room temperature and washed 5 times with PBS-T. Cells were incubated in a padlock probe and extension-ligation reaction mix (1× Ampligase buffer, 0.4 U/mL RNase H, 0.2 mg/mL BSA, 100 nM padlock probe, 0.02 U/mL KlenTaq polymerase, 0.5 U/mL Ampligase and […]) for 5 minutes at 37° C. and 90 minutes at 45° C., and then washed 2 times with PBS-T. Circularized padlocks were amplified with rolling circle amplification mix (1× Phi29 buffer, 250 µM dNTPs, 0.2 mg/mL BSA, 5% glycerol, and 1 U/mL Phi29 DNA polymerase) at 30° C. for 4 hours. Rolling circle amplicons were prepared for sequencing by hybridizing a mix containing sequencing primer oSBS_CROP-seq (1 µM primer in 2×SSC+10% formamide) for 30 minutes at room temperature. Barcodes were read out using sequencing-by-synthesis reagents from the Illumina NextSeq 500/550 kit v2 (Illumina 15057934). First, samples were washed with incorporation buffer (NextSeq 500/550 buffer cartridge, position 35) and incubated for 4 minutes in incorporation mix (NextSeq 500/550 reagent cartridge, position 31) at 60° C. Samples were then washed with incorporation buffer (4 washes, 60° C. for 4 minutes at the last wash) and placed in scan mix (NextSeq 500/550 reagent cartridge, position 30) for imaging. Imaging was performed on a PerkinElmer Opera Phenix microscope with excitation laser: 561 nm, emission filter: 570-630, 500 ms; excitation laser: 640 nm, emission filter: 650-760 nm, 500 ms using a 63× water immersion objective, confocal mode. Based were detected as follows: Base T: signal in 561 channel; Base C: signal in 640 channel, Base A: (weaker) signal in both channels, Base G: no signal. Following each imaging cycle, samples were washed with the cleavage mix (NextSeq 500/550 reagent cartridge, position 29) once followed by incubation with cleavage mix for 4 minutes at 60° C. to remove dye terminators. Samples were washed 5 times with incorporation buffer before starting the next cycle.
It was reasoned that the highly diverse pool of cells expressing GFP-tagged proteins can be used to identify compounds that change protein levels or localization of any of the tagged proteins. […] The application of the CROP-seq vector16 that expresses the sgRNA sequence in a polyadenylated mRNA transcript enables the cell-specific identification of the targeted intron by situ sequencing (see also Feldman, D. et al. Cell 179, 787-799 e17 (2019), Ke, R. et al. Nat Methods 10, 857-60 (2013), Larsson, C. et al. Nat Methods 7, 395-7 (2010). 17-19). To map targeted introns, the cell pool was fixed and a modified in situ sequencing protocol was developed to identify the sgRNA sequence integrated into individual cells in the pool. Based on the library diversity, eight cycles of nucleotide incorporation and imaging are sufficient to unambiguously assign sgRNA sequences (FIG. 6c). Application of this protocol to the cell pool confirmed that in clones with drastic loss of signal GFP was indeed targeted to BRD4 (FIG. 6d).
Therefore, the cell pool was treated with methotrexate (MTX), an antimetabolite impairing DNA and RNA synthesis and causing DNA damage by inhibiting tetrahydrofolate metabolism. […]

[1] abbreviates: dBET6-treated cell pool, FIG. 6e.

As to `Cc1sc2c(c1C)C(c1ccc(Cl)cc1)=N[C@@H](CC(=O)NCCCCCCCCNC(=O)COc1cccc3c1C(=O)N(C1CCC(=O)NC1=O)C3=O)c1nnc(C)n1-2` (some centres unmarked) [dBET6], under setting [1], the AKAP8 localization entry is recorded as “gain of nuclear foci”, the FUBP3 localization result was “loss of subnuclear localization patterns”, the MEAF1 localization result is on record as “loss of subnuclear localization patterns” and the SFPQ localization entry is recorded as “gain of nuclear foci”. The UNG nuclear intensity result under setting [1] is reported as “loss of nuclear intensity”.

For the compound `CN(Cc1cnc2nc(N)nc(N)c2n1)c1ccc(C(=O)N[C@@H](CCC(=O)O)C(=O)O)cc1` [methotrexate], for the setting “1 µM methotrexate (FIG. 10)”, the DR1 nuclear signal entry is reported as “gain of nuclear signal”, the “GFP-tagged RPA1 localization” value is reported as “formation of nuclear foci”, the “GFP-tagged RPA2 localization” value is reported as “formation of nuclear foci” and the NUDT21 nuclear signal entry is reported as “gain of nuclear signal”. Further, for the setting “1 µM methotrexate (FIG. 10)”, the PADI1 protein result is on record as “decreases”, the RUVBL1 protein result is on record as “decreases”, the TPI1 nuclear signal result was “gain of nuclear signal” and the “nuclear DNMT1 foci” value is listed as “disappearance of nuclear DNMT1 foci”. For the same compound, the “GFP-tagged ACLY localization” value (24 h MTX treatment, 1 µM methotrexate (FIG. 10)) was “increased nuclear localization”.
